Consider 1 compound from patent US20080261891A1, “COMPOSITIONS AND METHODS FOR USING SYRINGOPEPTIN 25A AND RHAMNOLIPIDS” (Utah State University, priority 2007, published 2008).

Series [1] relates to mouse enteroendocrine cells (STC-1). As to the kind of experiment: Toxicity to mammalian cells, percent cell death (Nucleocounter). The following applies: 4 μg/mL and 8 μg/mL, 6, 24, and 48 h. The method, then: (§1) Toxicity of the two compounds to mammalian cells was assayed in cell culture using mouse enteroendocrine cells (STC-1), human embryonic kidney cells (HEK 293; ATCC CRL-1573), and human lung fibroblasts (LL47; ATCC CCL-135). […] The human embryonic kidney cells and human lung fibroblasts were grown as per the American Type Culture Collection's recommendation, while the mouse enteroendocrine cells were grown as described by Vincent et al. (2001, Proc. Natl. Acad. Sci., 99:2392-2397). Media and sera were purchased from HyClone Laboratories (Logan, Utah). All cells were grown in 10% fetal bovine serum (FBS).
(§2) The number in the parenthesis represents the concentration of each compound in μg/mL. The percent cell death was benchmarked to 100% lysis with the positive control. The number of total cells and dead cells were counted after 6, 24, and 48 h using a Nucleocounter Automated cell counting system (New Brunswick; Edison, N.J.). Briefly, cells (STC, 200,000 cells/well; HEK 293, 200,000 cells/well; and LL47, 100,000 cells/well) were incubated in the appropriate medium for 24 h prior to addition of fresh media containing the antimicrobial compounds. After addition of the antimicrobial compound, the cell cultures were incubated at 37° C. with 5% CO2 for 6, 24, and 48 h. Cells were harvested by trypsinization using 0.25% trypsin-EDTA for 2 min. The trypsin was neutralized by addition of 200 μL of serum containing fresh medium. The cells were then harvested and transferred to 1.5 mL tubes, centrifuged (3-5 min at <100×g), and resuspended in 200 μL of fresh medium. For the total cell count, 100 μL of the suspension was added to lysis buffer (Reagent A100 in the starting kit (Cat No. M1293-0020, New Brunswick Scientific) for 30 s, which was stabilized using 100 μL of Reagent B. A positive control of completely lysed cells was used along with a negative control using sterile PBS (pH 7.4). For dead cell counts, 100 μL of cell lysate was counted without the use of lysis buffer or stabilizing buffer. All cell counts were obtained using the Nucleocounter automated cell counting system. Data were reported as the percent of cell death. The toxicity testing was done in replicate using three wells per test.

Series [2] concerns human lung fibroblasts (LL47). Described as above. The following applies: 4 μg/mL and 8 μg/mL, 6, 24, and 48 h. The method, then: as §1, §2
Series [3] has as its system human embryonic kidney cells (HEK 293). The series is described as above. Particulars: 4 μg/mL and 8 μg/mL, 6, 24, and 48 h. The method, then:
as §1, §2

In series [4] the test system is organisms tested (gram-positive and gram-negative bacteria, Table 1).
Series [5] has as its system Listeria monocytogenes EGDe. Briefly: Membrane permeabilization by PI uptake during treatment. The format is cell-based. Here is the method:
Membrane permeabilization was determined through following the change in fluorescence of a dye, propidium iodide (“PI”). PI is unable to pass through the cell membrane unless the membrane has been physically compromised. Once inside the cell, the intercalation of the PI with the DNA of the cell causes the fluorescent properties of the dye to change. This change in fluorescence can be measured. Therefore, an uptake of PI indicates an increase in membrane permeabilization.
FIGS. 6A includes a graph that illustrates the amount of membrane permeabilization in response to SP 25A and RLs. Membrane permeabilization was determined by the increase in fluorescence (RFU) with PI uptake during treatment of L. monocytogenes with SP 25A and RLs over a period of 120 min.
Listeria monocytogenes EGDe was thawed and subcultured twice at 37° C. in brain heart infusion broth (BHI) (DIFCO, Franklin Lanes, N.J.). […]
Total RNA was extracted from a 1.8 mL culture immediately before treating the cells with SP 25A and RLs (T0), after 30 min (T30), and at 120 min (T120) of exposure at 37° C. Simultaneously, the cell density was measured at OD600. Membrane permeabilization was determined by measuring the PI uptake. […] Each well contained five probes for each open reading frame in the entire genome.

A further series has as its system RBC. Particulars: reported by Dalla Serra et al. 1999; cited from earlier work.
Another series deals with Mycobacterium smegmatis. The format is cell-based.
Series [6] concerns Clostridium sporogenes (spores). As to the kind of experiment: MIC, microbroth dilution method (spore germination). The following applies: inhibition of spore germination, 48 h. The format is cell-based. The method, then:
(§3) The MIC of the compounds for the organisms was determined by the microbroth dilution method, described hereafter. The microorganisms were prepared as described above and resuspended in their optimal growth media (Table 1) to ˜10^5 CFU/mL containing SP 25A at 2, 3, 4, 5, 6, 7, 8, 16, 32 and 50 μg/mL in a total volume of 550 μL. RL concentrations of 2, 3, 4, 5, 6, 7, 8, 16, 32 and 60 μg/mL in a total volume of 550 μL were tested in a 48-well plate (Corning, N.Y.). The plates were incubated at optimal growth conditions for the respective organism and monitored for an increase in OD600 after 48 h by a Perkin-Elmer (HTS 7000) plate reader (Downers Grove, Ill.). […] Negative controls (no inhibition of growth) were included using saline in the assay for each compound. The lowest concentration at which there was no increase in OD over 48 h was reported as the MIC. Each MIC was determined in replicate with three separate tests per replication. The results of the three tests were averaged for each replicate.

The subject of series [7] is Bacillus subtilis (spores). The description is as above. The format is cell-based. The following applies: inhibition of spore germination, 48 h. The method, then: as §3

Structures are written as SMILES. ≈ marks a conversion by molar mass, not a printed value. Where “and” joins values, the source holds several entries; their conditions need not be identical. Equal values may be shown once. Where a SMILES comes first, the peptide text is derived from it. Bridges are numbered along the chain shown (N, C = ends). [ ]: non-standard residue; d: D form. The star is where a group is joined. ξ: configuration not given here. Decanoyl(3ξ-OH) = CCCCCCCC(O)CC(=O)*; Dab = NCC[CH](N)C(=O)O; Dhb = C/C=C(\N)C(=O)O

With `C/C=C(\NC(=O)C(C)NC(=O)C(C)NC(=O)C(CC(C)C)NC(=O)C(NC(=O)C(C)NC(=O)C(C)NC(=O)C(NC(=O)C1CCCN1C(=O)/C(=C/C)NC(=O)CC(O)CCCCCCC)C(C)C)C(C)C)C(=O)NC(C(=O)N/C(=C\C)C(=O)NC(C)C(=O)NC(C(=O)NC(C)C(=O)NC(C)C(=O)N/C(=C\C)C(=O)NC1C(=O)NC(CO)C(=O)NC(C)C(=O)NC(C(C)C)C(=O)NC(C)C(=O)NC(CCN)C(=O)NC(CCN)C(=O)NC(Cc2ccc(O)cc2)C(=O)OC1C)C(C)C)C(C)C` (stereo not drawn) [SP 25A, syringopeptin 25A] ({Decanoyl(3ξ-OH)}-[Dhb]PVAAVLAA[Dhb]V[Dhb]AVAA[Dhb]TSAVA[Dab][Dab]Y; ester 18-C; configuration not given here), the “cytotoxicity (percent cell death)” value in series [1], in series [2] and in series [3] was “No significant (p>0.05) cytotoxicity” throughout. For the same compound, the “MIC range for the organisms tested” value in series [4] was 3 to 16 µg/mL. Further, in [4], the “MICs against gram-positive bacteria” value is at most 8 µg/mL. Further, the “growth inhibition of gram-negative organisms tested” value in [4] (gram-negative organisms, except F. devorans) is given as “did not inhibit the growth”. Besides, in series [5] (L. monocytogenes EGDe, 3 μg/mL SP 25A, after 30 min), the “increase in membrane permeabilization (PI uptake)” value was ~2% and 2.6%. Also, the “PI uptake (membrane permeabilization)” value in series [5] (L. monocytogenes, sub-MIC doses, over 120 min) is “did not”. Also, the “concentration to achieve 50% RBC hemolysis” value in the series on RBC was 8880 ng/mL. The MIC (in the series with Mycobacterium smegmatis; in series [6]; in series [7]) was 4 µg/mL (≈ 1.67 µM) in each case.

Broadly, the MIC is the lowest concentration that inhibits growth of the organism. A low value points to inhibition by little substance.
